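Interpolation was linear, between the two tested concentrations surrounding the appropriate level; five concentrations were tested over 48 hours in 96-well plates. At the GI50, growth is halved. TGI marks complete inhibition of growth.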
Experiments:
Assay in all cases: DTP human tumour cell line panel, 48 h
OVCAR-4 ovarian = test system: OVCAR-4 ovarian
OVCAR-5 ovarian = test system: OVCAR-5 ovarian
SN12C renal = test system: SN12C renal
OVCAR-3 ovarian = test system: OVCAR-3 ovarian
SK-MEL-2 melanoma = test system: SK-MEL-2 melanoma
IGROV1 ovarian = test system: IGROV1 ovarian
M14 melanoma = test system: M14 melanoma
HCT-15 colon = test system: HCT-15 colon
NCI-H460 lung = test system: NCI-H460 lung
NCI-H23 lung = test system: NCI-H23 lung

Structure (SMILES) | TGI (OVCAR-4 ovarian) [µM] | TGI (OVCAR-5 ovarian) [µM] | TGI (SN12C renal) [µM] | TGI (OVCAR-3 ovarian) [µM] | TGI (SK-MEL-2 melanoma) [µM] | TGI (IGROV1 ovarian) [µM] | TGI (M14 melanoma) [µM] | TGI (HCT-15 colon) [µM] | TGI (NCI-H460 lung) [µM] | TGI (NCI-H23 lung) [µM] | GI50 (OVCAR-5 ovarian) [µM] | GI50 (SN12C renal) [µM] | GI50 (OVCAR-3 ovarian) [µM] | GI50 (SK-MEL-2 melanoma) [µM] | GI50 (M14 melanoma) [µM] | GI50 (HCT-15 colon) [µM] | GI50 (NCI-H460 lung) [µM] | GI50 (OVCAR-4 ovarian) [µM] | GI50 (IGROV1 ovarian) [µM] | GI50 (NCI-H23 lung) [µM]
COc1ccc(C2=[S+]C(c3ccccc3)(c3ccccc3)c3ccccc32)cc1 | 62.2 | 49.5 | 37.1 | 43.6 | 33.3 | > 100 | 31.4 | 54.6 | 30.5 | 74.8 | – | – | – | – | – | – | – | – | – | –
Nc1ccccc1C#CC(=O)c1cccc(C(F)(F)F)c1 | 5.51 | 23.7 | 4.81 | 14.7 | 2.54 | 1.99 | 5.1 | – | 47.6 | 4.71 | – | – | – | – | – | – | – | – | – | –
CCOC(=O)/C=C/c1c(C)[nH]c(=O)[nH]c1=O | > 158 | > 250 | > 250 | > 250 | > 250 | > 250 | – | > 250 | > 250 | > 250 | – | – | – | – | – | – | – | – | – | –
CN=C(Nc1ccc(OC)c2ccccc12)SC | > 10 | > 10 | > 10 | > 10 | – | > 10 | > 10 | > 10 | – | > 10 | – | – | – | – | – | – | – | – | – | –
Cc1ccc(O)c(C2=CC3=NNC(=O)C3C(c3cccc(Cl)c3)C2)c1 (configuration not stated) | 44.3 | > 100 | > 100 | 84.1 | 86.2 | > 100 | > 100 | > 100 | > 100 | > 100 | – | – | – | – | – | – | – | – | – | –
O=C(/C=C1\Sc2ccccc2N=C1CC(=O)c1ccccc1)c1ccccc1 | 40.3 | 61.4 | 39.4 | 29.5 | 87.2 | 37.4 | 36.4 | > 100 | 27.5 | > 100 | – | – | – | – | – | – | – | – | – | –
C/C(=N\NC(=S)N1CCC(N2CCCCC2)CC1)c1ccccn1 | 16.7 | 10.2 | 8.17 | 13.4 | > 100 | 12.3 | 3.8 | 6.13 | 7.23 | 12 | – | – | – | – | – | – | – | – | – | –
COc1cccc2c1C(=O)c1c(O)c3c(c(O)c1C2=O)C[C@@](O)(C(=O)COC(=O)c1ccccc1)C[C@@H]3OC1CC(N)C(O)C(C)O1 (some centres not stated) | – | 1.64 | 1.12 | 1.42 | 1.99 | – | 1.35 | 1.76 | 0.182 | – | 0.4 | 0.0936 | 0.369 | 0.563 | 0.21 | 0.451 | 0.0167 | – | – | –
Cc1ccc(Cl)cc1N=NC(=O)NNc1cc(Cl)ccc1C | – | 32.7 | 80.8 | 37 | 32.8 | 38.3 | 34.7 | 95.4 | 39 | 44.3 | – | – | – | – | – | – | – | – | – | –
N#[N+]c1c([O-])c2ccccc2c2ccccc12 | > 100 | > 100 | > 100 | > 100 | 93.4 | > 100 | > 100 | > 100 | > 100 | > 100 | – | – | – | – | – | – | – | – | – | –
c1ccc2c(c1)c1ccccc1n2Cn1c2ccccc2c2ccccc21 | > 100 | > 100 | > 100 | > 100 | > 100 | > 100 | > 100 | > 100 | > 100 | > 100 | – | – | – | – | – | – | – | – | – | –
Cc1cn(-c2cccc(NC(=O)c3ccc(C)c(Nc4nccc(-c5cccnc5)n4)c3)c2)cn1 | 3.11 | 3.68 | 4.7 | 3.84 | 7.83 | 3.92 | 5.47 | 8.26 | 4.05 | 10 | 1.88 | 2.1 | 1.95 | 2.58 | 2.08 | 2.73 | 1.97 | 1.71 | 2.08 | 3.01
O=C1CCC[C@H]2O[C@@H](COC(=O)c3ccccc3)C[C@H]2O1 | > 100 | > 100 | > 100 | > 100 | > 100 | > 100 | > 100 | > 100 | > 100 | > 100 | – | – | – | – | – | – | – | – | – | –
O=c1oc(-c2ccc(O)cc2)cc2cc(O)ccc12 | > 100 | > 100 | 65.1 | > 100 | > 100 | > 100 | 55.5 | > 100 | 58.2 | 57.6 | – | – | – | – | – | – | – | – | – | –
Cc1cc(N/N=C/c2nc(-c3ccc(Cl)cc3)oc2C)c2cc(Br)ccc2n1 | 3.69 | 21.9 | 4.38 | 3.89 | 32.2 | 16.7 | 4.55 | 4.42 | 3.67 | 23.6 | 10.1 | 2.05 | 1.96 | 17.5 | 2.02 | 1.79 | 1.88 | 1.87 | 3.14 | 6
COc1ccc(/C=C2\C[C@H]3[C@@H]4CCC5=C/C(=N/O)CC[C@]5(C)[C@H]4CC[C@]3(C)\C2=N\O)cc1 | > 100 | > 100 | > 100 | > 100 | 72.4 | > 100 | 57.7 | > 100 | > 100 | > 100 | – | – | – | – | – | – | – | – | – | –
O=c1nc2ccc([N+](=O)[O-])cc2[n+]([O-])[nH]1 | > 100 | > 100 | > 100 | > 100 | > 100 | > 100 | > 100 | > 100 | > 100 | > 100 | – | – | – | – | – | – | – | – | – | –
C/C(=N\NC(=O)c1ccc(Cl)cc1)c1nc2ncccc2[nH]1 | 47.9 | > 100 | > 100 | 81.5 | > 100 | > 100 | > 100 | > 100 | > 100 | > 100 | – | – | – | – | – | – | – | – | – | –
O=C(N/N=C\c1cccc2ccccc12)Nc1ccccc1 | > 100 | > 100 | > 100 | > 100 | > 100 | > 100 | > 100 | > 100 | > 100 | > 100 | – | – | – | – | – | – | – | – | – | –
c1cc2c3c(c1)c1cc4c(cc1c[n+]3CC2)OCO4 | 47.7 | 24.9 | 9.01 | 16.2 | 9.35 | 63.5 | – | > 225 | 12.2 | 13.8 | – | – | – | – | – | – | – | – | – | –
CCc1ccc2[nH]c(O)c(C3=Nc4ccccc4C3=O)c2c1 | 61.3 | > 100 | > 100 | 51.8 | 43.7 | 20.1 | > 100 | > 100 | > 100 | > 100 | – | – | – | – | – | – | – | – | – | –
O=C(NN1C(=O)C(Cl)C1c1cccc([N+](=O)[O-])c1)c1ccccc1O (configuration not stated) | > 100 | > 100 | > 100 | > 100 | > 100 | > 100 | > 100 | – | > 100 | > 100 | – | – | – | – | – | – | – | – | – | –
CCOc1cc(/C=C/C(=O)C(C(=O)/C=C/c2ccc(OC(=O)CNc3nc4ccccc4[nH]3)c(OCC)c2)C(=O)CNc2nc3ccccc3[nH]2)ccc1OC(=O)CNc1nc2ccccc2[nH]1 | 22.7 | 5.22 | 5.61 | 12.3 | 28.8 | > 100 | 6.76 | 7.87 | 4.44 | 9.71 | 2.09 | 2.21 | 2.81 | 3.26 | 2.14 | 2.53 | 1.92 | 3.39 | 2.93 | 2.5
O=c1[nH]c(SCc2cccc([N+](=O)[O-])c2)nc2nc[nH]c12 | > 100 | > 100 | > 100 | > 100 | > 100 | > 100 | > 100 | > 100 | > 100 | > 100 | – | – | – | – | – | – | – | – | – | –
Oc1[nH]c2ccccc2c1C1=Nc2ccccc2/C1=N\OCCOC1OCC(O)C(O)C1O (configuration not stated) | > 100 | > 100 | > 100 | > 100 | > 100 | > 100 | > 100 | > 100 | > 100 | > 100 | – | – | – | – | – | – | – | – | – | –

— PubChem BioAssay (NCI)
